The values below are quoted from earlier work in patent publication US10179139B2, “Pharmaceutical composition” (CIPLA Limited, priority 2010, dated 2019).

The conditions of this series: in vivo.

In the case of `CCc1cc2c(cc1CC)CC(NC[C@H](O)c1ccc(O)c3[nH]c(=O)ccc13)C2` [Indacaterol, (R)-5-[2-[(5,6-Diethyl-2,3-dihydro-1H-inden-2-yl)amino]-1-hydroxyethyl]-8-hydroxyquinolin-2(1H)-one], the duration of action entry was “more than 24 hrs”.
`C[N+]1(C)[C@@H]2C[C@@H](OC(=O)C(O)(c3cccs3)c3cccs3)C[C@H]1[C@@H]1O[C@@H]12` [Tiotropium, (1α, 2β, 4β, 5α, 7β)-7-[(Hydroxydi-2-thienylacetyl)oxy]-9,9-dimethyl-3-oxa-9-azoniatricyclo[3.3.1.0^2,4]nonane bromide monohydrate]: the duration of action entry is on record as “up to 32 hours”.
